# From patent US20180078516A1 (InnovaZone Labs LLC, priority 2016, published 2018)
# Tests used:
# [1] = cited from earlier work
# [2] = cited from earlier work; remark: listed apart in the source
# clinical = details: human, in vivo, po, 400 mg
SMILES,solubility in water [1],onset of therapeutic effects after oral administration [2],Tmax (clinical)
"CC(C)Cc1ccc(C(C)C(=O)O)cc1 (racemic) [Ibuprofen, (R,S)-2-(4-isobutylphenyl) propionic acid]",practically insoluble,between 45 minutes and one hour,
"CC(C)Cc1ccc(C(C)C(=O)O)cc1 (racemic) [ibuprofen sodium dihydrate, (R,S)-2-(4-isobutylphenyl) propionate sodium]",,,~35 min
